Structures can show the parent of a compound that is named as a salt.
Legend:
[1] = test system: VCAM-1; experiment: In Vitro VCAM-1 Assay (TNF-α stimulated endothelial cells, cell-surface ELISA); assay type: cell-based; details: primary human aortic (HAEC) or pulmonary (HPAEC) endothelial cells, TNF-α 1 ng/ml, approximately 16 hours, ELISA OD 450 nm
Method: Cell Culture and compound dosing: Cultured primary human aortic (HAEC) or pulmonary (HPAEC) endothelial cells were obtained from Clonetics, Inc., and were used below passage 9. Cells were seeded in 96 well plates such that they would reach 90–95% confluency by the following day. On the following day the cells were stimulated with TNF-α (1 ng/ml) in the presence or absence of compounds dissolved in DMSO such that the final concentration of DMSO is 0.25% or less. To establish a dose curve for each compound, four concentrations in 2- to 5-fold increments were used. Cells were exposed to TNF-α and compounds for approximately 16 hours. The next day the cells were examined under microscope to score for visual signs of toxicity or cell stress.
Following 16 hr exposure to TNF-α and compound the media was discarded and the cells were washed once with Hanks Balanced Salt Solution (HBSS)/Phosphate buffered saline (PBS) (1:1). Primary antibodies against VCAM-1 (0.25 μg/ml in HBSS/PBS+5% FBS) were added and incubated for 30–60 minutes at 37° C. Cells were washed with HBSS/PBS three times, and secondary antibody Horse Radish Peroxidase (HRP)-conjugated goat anti-mouse IgG (1:500 in HBSS/PBS+5% FBS) were added and incubated for 30 minutes at 37° C. Cells were washed with HBSS/PBS four time and TMB substrate were added and incubated at room temperature in the dark until there was adequate development of blue color. The length of time of incubation was typically 5–15 minutes. 2N sulfuric acid was added to stop the color development and the data was collected by reading the absorbance on a BioRad ELISA plate reader at OD 450 nm. The results are expressed as IC50 values (the concentration (micromolar) of compound required to inhibit 50% of the maximal response of the control sample stimulated by TNF-α only).

[2] = Homo sapiens, Endothelial cell, 16 h

Structure (SMILES) | IC50 [1, 2] [µM] | melting point [°C] | IC50 [1] [µM]
COc1cc(OC)c(-c2cccs2)cc1/C=C/C(=O)c1ccc(S(=O)(=O)Nc2cc(C)no2)cc1 [Example 9] |  |  | < 10
COc1cc(OC)c(-c2cccs2)cc1/C=C/C(=O)c1ccc(S(=O)(=O)N2CCN(C)CC2)cc1 [Example 21, 3E-(2,4-Dimethoxy-5-thien-2-ylphenyl)-1-[4-(4-methylpiperazine-1-sulfonyl)phenyl]propenone] |  |  | < 10
COc1cc(OC)c(-c2cccs2)cc1/C=C/C(=O)c1ccc(S(=O)(=O)Nc2cc(C)on2)cc1 (as salt: sodium) [Example 2, 4-[3E-(2,4-Dimethoxy-5-thien-2-ylphenyl)acryloyl]-N-(5-methylisoxazol-3-yl)benzenesulfonamide sodium salt] |  | > 260 | 
COc1cc(OC)c(-c2cc3ccccc3n2C)cc1/C=C/C(=O)c1ccc(S(=O)(=O)NCc2cccnc2)cc1 [Example 17, 4-{3E-[2,4-Dimethoxy-5-(1-methyl-1H-indol-2-yl)phenyl]acryloyl}-N-pyridin-3-ylmethy-benzenesulfonamide] |  |  | < 10
CCOC(=O)[N-]S(=O)(=O)c1ccc(C(=O)/C=C/c2cc(-c3cc4ccccc4[nH]3)c(OC)cc2OC)cc1.[K+] [Example 40, N-Ethoxycarbonyl-4-{3E-[5-(1H-indol-2-yl)-2,4-dimethoxyphenyl]acryloyl}benzenesulfonamide potassium salt] |  | 220 to 222 | 
CCOC(=O)NS(=O)(=O)c1ccc(C(=O)/C=C/c2cc(-c3cc4ccccc4[nH]3)c(OC)cc2OC)cc1 [Example 41, N-Ethoxycarbonyl-4-{3E-[5-(1H-indol-2-yl)-2,4-dimethoxyphenyl]acryloyl}benzenesulfonamide] | < 5 |  | 
COc1cc(OC)c(-c2cccs2)cc1/C=C/C(=O)c1ccc(S(=O)(=O)Nc2nnn[nH]2)cc1 [Example 4, 4-[3E-(2,4-Dimethoxy-5-thien-2-ylphenyl)acryloyl]-N-(1-H-tetrazol-5-yl)benzenesulfonamide] |  |  | > 10

More lines, main results first:

IC50 [1, 2] [µM] | melting point [°C] | Structure (SMILES) | IC50 [1] [µM]
< 5 |  | CCCC(=O)NS(=O)(=O)c1ccc(C(=O)/C=C/c2cc(-c3cc4ccccc4[nH]3)c(OC)cc2OC)cc1 [Example 47, N-Butyryl-4-{3E-[5-(1H-indol-2-yl)-2,4-dimethoxyphenyl]acryl}benzenesulfonamide] | 
 | 191 to 193 | CCCC(=O)[N-]S(=O)(=O)c1ccc(C(=O)/C=C/c2cc(-c3cc4ccccc4[nH]3)c(OC)cc2OC)cc1.[Na+] [Example 49, N-Butyryl-4-{3E-[5-(1H-indol-2-yl)-2,4-dimethoxyphenyl]acryloyl}benzenesulfonamide sodium salt] | 
< 5 |  | COc1cc(OC)c(-c2cc3ccccc3n2C)cc1/C=C/C(=O)c1ccc(S(=O)(=O)Nc2cc(C)on2)cc1 [Example 16, 4-{3E-[2,4-Dimethoxy-5-(1-methyl-1H-indol-2-yl)phenyl]acryloyl}-N-(5-methylisoxazol-3-yl)benzenesulfonamide sodium salt] | 
< 10 |  | COc1cc(OC)c(-c2cccs2)cc1/C=C/C(=O)c1ccc(S(=O)(=O)N2CCCCC2C(=O)O)cc1 (stereo not shown) [Example 28, 1-{4-[3E-(2,4-Dimethoxy-5-thien-2-ylphenyl)acryloyl]benzenesulfonyl}piperidine-2-carboxylic acid] | 
 | 202 to 206 | COc1cc(OC)c(-c2cc3ccccc3n2C)cc1/C=C/C(=O)c1ccc(S(=O)(=O)Nc2cc(C)on2)cc1 (as salt: sodium) [Example 16, 4-{3E-[2,4-Dimethoxy-5-(1-methyl-1H-indol-2-yl)phenyl]acryloyl}-N-(5-methylisoxazol-3-yl)benzenesulfonamide sodium salt] | 
< 5 |  | CCCC(=O)NS(=O)(=O)c1ccc(C(=O)/C=C/c2cc(N3CCCC3)c(OC)cc2OC)cc1 [Example 48, N-Butyryl-4-[3E-(2,4-dimethoxy-5-pyrrolidin-1-ylphenyl)acryloyl]benzenesulfonamide] | 
